Experimental data: patent publication US20160318844A1, “PROSTACYCLIN COMPOUNDS, COMPOSITIONS AND METHODS OF USE THEREOF” (Insmed Incorporated, priority 2015, published 2016)
“Also recorded” adds a separate entry of the source. Read-outs that look alike come from different tables or passages of the source. Blank lines part the entries; values can stand above or below the compound they belong to.

Assays:
[1] = Particle size characterization of treprostinil compositions (QELS); format: physicochemical; details: compositions of Table 3, FIG. 2
Procedure: The compositions in Table 3 were subject to particle size characterization.
All particle size measurements were performed using a Wyatt Technology Mobius™ Zeta Potential/Particle Sizing Instrument in Quasi-elastic light scattering (QELS) mode. Composition aliquots were diluted 10-fold in pre-filtered (0.02 μm pore filter) ultrapure of deionized H2O. Light scattering data was collected and converted into particle size and size distribution using Dynamics® v. 7.2.4 instrument software. Reported average particle size diameter is based on the cumulants model, which mathematically fits particle diffusion constants (determined by the raw scattering intensities of particles in a suspension) to obtain the particle size mean and a distribution of particle sizes around the mean diameter.
Particle uniformity was determined using the software-calculated polydispersity (% PD). Polydispersity is defined as the standard deviation of the particle size distribution from the mean particle size value. % PD normalizes the polydispersity to the mean diameter by dividing by the mean size and multiplying by 100. […]
Dynamics@ polydispersity parameter represents a monodisperse population of particles if % PD ≦15. A calculated % PD ≧57% represents a polydisperse population of particles.

EP2 prostanoid receptor = target: T1, EP2 prostanoid receptor (Homo sapiens, UniProt P43116); experiment: GloSensor cAMP assay in CHO-K1 cells co-transfected with the EP2 receptor; format: cell-based; details: for change of potency with incubation time: cAMP dose response curves, 0.5 hr to 8 hr; for ranking of activity: kinetic profile at 10 μM and 5 μM
T1 construct: host or cells: CHO-K1
Description: cAMP is a second messenger involved in signal transduction of G-protein coupled receptors (GPCRs) acting through Gα-s and Gα-i proteins. Because the treprostinil receptor is a GPCR, the assay provides an indication of whether the respective prostacyclin compound (or metabolite thereof) binds its receptor and activates the GPCR cell signaling cascade. The GloSensorTM assay harnesses a genetically modified form of firefly luciferase into which a cAMP-binding protein moiety has been inserted. Upon binding of cAMP, a conformational change is induced leading to increased light output. The EP2 prostanoid receptor was cotransfected with the GioSensorm plasmid (Promega) into CHO-K cells as follows. CHO-K cells were harvested when the monoloayer was at 50-90% confluence. First, cells were washed with 5 mL PBS. […] The media was aspirated, and the cell pellet was resuspended in 10 mL of growth media. Cell number was determined using a hemacytometer. […] For small scale transfections of up to 20 wells, the pGLoSensor-22F cAMP plasmid (Promega, Cat #: E2301) (2 apg): […] Cat #: […] P2271) ratio was diluted to a final concentration of 12.6 ng/μL (total plasmid) in Opti-MEM I reduced-serum medium (Life Technologies, Cat #: 1985062). Next, 6 μL of FuGENE HD transfection reagent (Promega, Cat #: E2311) was added to 160 μL of diluted plasmid and mixed carefully by gentle pipetting. The complex was incubated at room temperature for 0 to 10 minutes, and then 8 μL of the complex was added per well of a 96 well white assay plate (Costar, Cat #: 3917) and gently mixed without disturbing the cell monolayer. […] Following incubation, cells were treated and analyzed. For larger scale transfections, the aforementioned steps were scaled up accordingly, and cells were frozen following the last incubation. In order to prepare frozen transfected CHO-K cells, the media was aspirated from culture flasks and cells were rinsed with 5 mL PBS. […] Cell number was determined using a hemacytometer. The media was aspirated, and the cell pellet was resuspended in freezing media (Millipore, cat #: S-002-SF) at 2.5×10^4 cells/vial. Transfected cells were incubated overnight at -80° C. before transfer to liquid nitrogen for long term storage. […] SH30071.03)). […] In preparation for cAMP measurement, the cells were equilibrated with the GloSensor cAMP reagent prior to treatment. For equilibration, the medium was carefully removed from the individual well. Next, 100 μL of equilibration medium ([…] of Glosensor Reagent stock solution (Promega, Cat #: E291), 10% FBS (Hydone, Cat #: SH30071.03) and 88% CO2 independent medium (Life Technologies, Cat #: 18045088)) was added per well of the 96-well plate, and added to the side of each well. The plate was then incubated for 2 hours at room temperature. A first pre-read measurement was taken using a microplate reader (MicroLumat Plus). Plates were incubated for an additional 10 minutes at room temperature, followed by a second pre-read measurement. […] Following treatment, each plate was read every 5 minutes for the duration of the assay using a microplate reader (MicroLumat Plus). In order to determine the fold change in cAMP relative to the control, the transfection efficiency was first determined by dividing the second pre-read measurement by the average of the corresponding pre-read measurements. Next, the normalized relative light units (RLUs) of the samples were determined by dividing the plate read measurement by the transfection efficiency. The fold change in cAMP relative to the control was then determined by dividing the normalized RLU of the samples by the normalized RLU of the control. The cAMP assay was validated using free treprostinil. […] Luminescence was then measured at room temperature. […] Nebulizer Aeroneb Pro (Aerogen) was used to nebulize treprostinil derivative compositions. Desired volume of the formulation (usually 3 mL) was loaded to the mesh head of the nebulizer. […]

[2] = Tolerability and pharmacokinetics in rats, inhaled C16-TR (T748) for 14-consecutive days; format: in vivo, rat; details: inhaled 0.6-18 μg/kg, formulation T748
Procedure: Body weights were recorded daily and organ weights (lungs, heart, liver) were measured 24 hr. after the last drug dose.

[3] = rat, in vivo
Procedure: Nebulized treprostinil (TRE) solution and treprostinil alkyl ester formulations were administered (at 15 nmol/kg, or […] TRE equivalent) to anaesthetised-ventilated rats (6-hour studies) or to conscious rats by nose-only inhalation (24-hour studies). Blood and lung samples were collected at specified time points. TRE and treprostinil alkyl ester concentrations in blood plasma and lung tissue were measured by HPLC/MS/MS analysis.
Male Sprague Dawley rats were placed in restraining tubes and exposed to nebulised drugs via the Jaeger-NYU Nose-Only Directed-Flow Inhalation Exposure System (CH Technologies, Westwood, N.J.) (FIG. 31). Test articles (6 mL at specific concentration) were nebulised using the Aeroneb nebuliser to deliver a predetermined estimated pulmonary dose. Blood and lung tissue samples were taken at selected times after nebulization of the drugs over a 24-hour period.

[4] = Treprostinil pharmacokinetics in anaesthetised, ventilated rats after nebulized dosing; format: in vivo, rat
Procedure: Male Sprague Dawley rats were anaesthetised and prepared with endotracheal tube for ventilation. The right femoral vein was cannulated to facilitate blood collections. Terminal lung samples were taken for analysis only 6 hours after dosing. […] Systemic blood pressure (mSAP), heart rate (HR), and arterial oxygen saturation (Sa02). Physiologic parameters were measured during normoxia (fraction of inspired oxygen [FrO2]=0.21, SaO2≈90%) and for 2 to 3 hours during hypoxia (FrO2=0.10, SaO2≈50%).

in vivo = details: dog
Procedure: Twelve beagle dogs of either sex were randomly assigned to different inhaled doses of treprostinil in PBS or the compound of Formula (A) wherein R2=
Formulations were nebulized with an Aeroneb nebulizer (MMAD: 2.5-4 μm) delivered into a 500 m1 expansion chamber. Formulations were nebulized for 2 min at ventilator settings of 90 ml/breath, 15 breaths/min (delivered volume=2.7 L) and collected on a filter. Drug amount (μg) on the filter was measured by HPLC to calculate the concentration of drug delivered through the ventilator circuit (μg/L).
(§1) Dosimetry was performed in propofol-anesthetized dogs in which nebulized drugs were introduced into a mixing chamber interposed on the inspiratory limb of a canine respirator. Technical trials were performed before each experiment to measure the concentration of drug (μg/L) delivered for each breath. The inhaled drug dose (μg/kg) was calculated using the formula: Inhaled Drug Dose (μg/kg)=Drug Conc. (μg/L)×Minute Ventilation (L/min.)×Time (min.)/Body Weight (kg). […] Clinical signs were monitored over this 72 hr. period.
(§2) Dosimetry was performed in propofol-anesthetized, artificially ventilated dogs in which nebulized drugs were introduced into a mixing chamber interposed on the inspiratory limb of the respirator. Technical trials were performed before each experiment measuring the concentration of drug (μg/L) per breath, minute ventilation and time required to achieve a targeted pulmonary dose. […] Clinical signs (cough, rapid shallow breathing, emesis and pale gums) were also monitored.

beagle dogs = experiment: Clinical signs in dogs after inhalation
Procedure: as §1, §2

guinea pigs = experiment: Cough reflex in guinea pigs; format: in vivo, guinea pig
Procedure: Aerosols were generated with an Ultra-Neb Pro nebulizer (nebulizer output 0.36 mL/min.) that was mixed with inspired air delivered at a rate of 2 L/min. The PBS or drugs were delivered for 10 min. and the number of coughs recorded during and for 20 min. after the delivery. Coughs were detected by visual observations, plethysmograph recordings and cough sounds.

[5] = male, Sprague Dawley, rat, inhaled or intranasal, 6 ug/kg, plasma treprostinil, nebulized, estimated pulmonary dose of 6 μg/kg

T1 sequence (P43116 whole entry): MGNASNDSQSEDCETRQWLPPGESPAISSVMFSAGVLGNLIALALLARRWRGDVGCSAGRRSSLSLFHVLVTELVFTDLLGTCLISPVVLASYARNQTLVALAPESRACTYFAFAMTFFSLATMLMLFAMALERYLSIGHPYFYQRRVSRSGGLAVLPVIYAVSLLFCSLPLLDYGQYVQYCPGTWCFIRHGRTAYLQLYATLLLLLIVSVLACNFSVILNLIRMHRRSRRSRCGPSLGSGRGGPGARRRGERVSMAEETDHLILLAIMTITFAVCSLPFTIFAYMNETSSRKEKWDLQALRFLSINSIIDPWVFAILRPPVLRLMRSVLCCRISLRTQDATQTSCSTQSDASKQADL

- polydispersity (% PD) [1]: around 15 % PD
- cAMP levels compared with free treprostinil (EP2 prostanoid receptor; 10 μM, FIG. 3A): equivalent to free treprostinil
- cAMP levels sustained for (EP2 prostanoid receptor; 10 μM, FIG. 3A): at least 6 hours
- cAMP response levels (EP2 prostanoid receptor; unformulated compounds, 5 μM, FIG. 5): equivalent to free treprostinil
Compound: treprostinil decyl ester [Compound C10-TR]
- duration of cAMP levels (EP2 prostanoid receptor; 5 μM, FIG. 4 and FIG. 5): sustained significantly longer than free treprostinil
- cAMP response compared with free treprostinil (EP2 prostanoid receptor; compositions, 5 μM, FIG. 4): greater than or equivalent to the response induced by free treprostinil

Compound: CCCCCCCCCCCCCCCCOC(=O)COc1cccc2c1C[C@H]1C[C@@H](O)[C@H](CC[C@@H](O)CCCCC)[C@H]1C2 [Compound C16-TR, hexadecyl-treprostinil]
- change of potency with incubation time (EP2 prostanoid receptor): increases with incubation time
- ranking of activity (EP2 prostanoid receptor): C12-TR>C14-TR>5-nonanyl-TR>C16-TR
- tolerability, body weights and organ weights [2]: no tolerability issues or significant changes (relative to PBS) in body weights and organ weights; also recorded: well tolerated

- polydispersity (% PD) [1]: around 15 % PD
- change of potency with incubation time (EP2 prostanoid receptor): increases with incubation time
- ranking of activity (EP2 prostanoid receptor): C12-TR>C14-TR>5-nonanyl-TR>C16-TR
- immediately post dose (IPD) [3]: 0.0104 mg/kg
Compound: CCCCCCCCCCCCCCOC(=O)COc1cccc2c1C[C@H]1C[C@@H](O)[C@H](CC[C@@H](O)CCCCC)[C@H]1C2 [Compound C14-TR, tetradecyl-treprostinil]

Compound: CCCCC[C@H](O)CC[C@@H]1[C@H]2Cc3cccc(OCC(=O)O)c3C[C@H]2C[C@H]1O [Treprostinil, (1R,2R,3aS,9aS)-[[2,3,3a,4,9,9a-hexahydro-2-hydroxy-1-[(3S)-3-hydroxyoctyl]-1H-benz[f]inden-5-yl]oxy]acetic acid]
- cAMP levels sustained for (EP2 prostanoid receptor; 10 μM, FIG. 3A): not exhibited
- EC50 (EP2 prostanoid receptor; 4.5 hr incubation time, read-out: EC50 (μM) 4.5 hr): 0.2 µM
- EC50 (EP2 prostanoid receptor; 6.0 hr incubation time, read-out: EC50 (μM) 6.0 hr): 0.29 µM
- EC50 (EP2 prostanoid receptor; 8.0 hr incubation time, read-out: EC50 (μM) 8.0 hr): 0.44 µM
- EC50 (EP2 prostanoid receptor; EC50 (μM) 0.5 hr, 0.5 hr incubation time): 0.18 µM
- EC50 (EP2 prostanoid receptor; EC50 (μM) 1.0 hr, 1.0 hr incubation time): 0.28 µM
- EC50 (EP2 prostanoid receptor; EC50 (μM) 2.0 hr, 2.0 hr incubation time): 0.15 µM
- EC50 (EP2 prostanoid receptor; EC50 (μM) 3.0 hr, 3.0 hr incubation time): 0.16 µM
- EC50 (EP2 prostanoid receptor; EC50 (μM) 4.0 hr, 4.0 hr incubation time): 0.19 µM
- EC50 (EP2 prostanoid receptor; EC50 (μM) 5.0 hr, 5.0 hr incubation time): 0.26 µM
- EC50 (EP2 prostanoid receptor; EC50 (μM) 7.0 hr, 7.0 hr incubation time): 0.46 µM
- Max cAMP level (Fold) (EP2 prostanoid receptor; Table 4, compositions of FIGS. 3A-3C (10 μM, 1 μM, 0.1 μM), 8 hours time course): ~16 Fold
- Max cAMP level (Fold) (EP2 prostanoid receptor; Table 5, 5 μM, FIG. 4, 8 hours time course): ~14 Fold
- Max cAMP level (Fold) (EP2 prostanoid receptor; Table 6, effect of nebulization, head (5 μM), FIG. 6): ~15 Fold
- change of potency with incubation time (EP2 prostanoid receptor): potency decreases with increasing incubation time
- time by which measurable levels of TRE were no longer seen in the lungs [4]: < 6 h
- time up to which measurable levels of TRE were seen in blood plasma [4]: ≤ 4 h
- AUC(0-t) [4, 5]: 2.13 ng·h/mL
- Cmax [4, 5]: 3.37 ng/mL
- Tmax [4, 5]: 3 min
- Cmax ([4]; male, Sprague Dawley, rat, inhaled, 6 ug/kg, plasma treprostinil, nebulized, estimated pulmonary dose of 6 μg/kg): 3.5 ng/mL
- Cmax (in vivo; beagle, 18 ug/kg): 5.9 ± 0.6 ng/mL
- treprostinil plasma Cmax, fold higher than with T623 at similar inhaled doses (in vivo; both, beagle): 15-20 fold
- Cmax (in vivo; both, beagle, inhaled or intranasal, 5 ug/kg): 2.7 ng/mL
- Cmax (in vivo; both, beagle, inhaled or intranasal, 16 ug/kg): 5.9 ng/mL
- period over which plasma levels of treprostinil were sustained (in vivo): disappeared within a few hours
- respiratory irritation (coughing, rapid shallow breathing) (beagle dogs; T623 inhaled doses as high as 46 μg/kg, treprostinil 5 and 16 μg/kg): present during the recovery period
- adverse clinical signs (beagle dogs; targeted dose of 18 μg/kg): Adverse clinical signs were seen
- exposure concentration that consistently evokes cough (guinea pigs; aerosol 1-300 μg/ml): ≥ 30 µg/mL
- cough bouts (guinea pigs; nebulized concentration of 30 μg/mL): 1-4
- guinea pigs with cough (guinea pigs; nebulized concentration of 30 μg/mL, 10 min. exposure): 7 of 7
- total number of coughs (guinea pigs; nebulized concentration of 30 μg/mL, average): 36±9 coughs
